Patent US9763445B2, “Safened herbicidal compositions comprising a pyridine carboxylic acid herbicide” (Dow AgroSciences, LLC, priority 2014, dated 2017)

How the values were obtained:
winter wheat (TRZAW) = test: Postemergence greenhouse trial, % visual injury on winter wheat; format: in vivo, Triticum aestivum; conditions: TRZAW
Procedure, shortened: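 Greenhouse crops at second to third true leaf stage sprayed postemergence at 187 L/ha with herbicide (g ae/ha) plus safener (g ai/ha) in acetone/DMSO diluted into 1.5% v/v Agri-dex. Injury scored visually versus solvent-blank controls after 20-22 d, 0 (none) to 100% (complete kill); expected mixture effects by Colby's equation.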

cleavers (GALAP) = test: Postemergence greenhouse trial, % visual injury on cleavers; format: in vivo, Galium aparine
Procedure, shortened: (§1)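 Herbicide rates g ae/ha, safener (cloquintocet-mexyl) rates g ai/ha; spray carrier 1.5% v/v crop oil concentrate, 187 L/ha, 2nd–3rd leaf stage. Rating: visual % injury at 20-22 d.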

prickly lettuce (LACSE) = test: Postemergence greenhouse trial, % visual injury on prickly lettuce; format: in vivo, Lactuca serriola; conditions: LACSE
Procedure, shortened: as §1

wild buckwheat (POLCO) = test: Postemergence greenhouse trial, % visual injury on wild buckwheat; format: in vivo, Polygonum convolvulus; conditions: alone, 35 g/ha
Procedure, shortened: (§2)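 Visual injury, 0 (none) to 100 (complete kill), rated 20-22 d after overhead track-sprayer application at 187 L/ha; Colby's equation gave expected mixture responses. Herbicide (g ae/ha) and cloquintocet-mexyl safener (g ai/ha) diluted in aqueous 1.5% v/v Agri-dex, applied to weeds at 2–3 true leaves.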

Russian thistle (SASKR) = test: Postemergence greenhouse trial, % visual injury on Russian thistle; format: in vivo, Salsola kali; conditions: SASKR
chickweed (STEME) = test: Postemergence greenhouse trial, % visual injury on chickweed; format: in vivo, Stellaria media; conditions: STEME
Procedure, shortened: as §2

shepherd's purse (CAPBP) = test: Postemergence greenhouse trial, % visual injury on shepherd's purse; format: in vivo, Capsella bursa-pastoris
cornflower (CENCY) = test: Postemergence greenhouse trial, % visual injury on cornflower; format: in vivo, Centaurea cyanus or Cyanus segetum; conditions: CENCY
[1] = compound 2 4.380 + CQC-m 0 g/ha

## Nc1c(F)c(-c2ccc3cc[nH]c3c2F)nc(C(=O)OCc2ccccc2)c1Cl [compound 2]
Winter wheat (TRZAW); compound 2 35 + CQC-m 0 g/ha
  % visual injury, observed (Ob): 20%
Winter wheat (TRZAW); compound 2 70 + CQC-m 0 g/ha
  % visual injury, observed (Ob): 30%
Winter wheat (TRZAW); compound 2 140 + CQC-m 0 g/ha
  % visual injury, observed (Ob): 50%
Cleavers (GALAP); [1]
  % visual injury, observed (Ob): 20%
Cleavers (GALAP); compound 2 8.75 + CQC-m 0 g/ha
  % visual injury, observed (Ob): 30%
Cleavers (GALAP); compound 2 17.5 + CQC-m 0 g/ha
  % visual injury, observed (Ob): 93%
Cleavers (GALAP); compound 2 35 + CQC-m 0 g/ha
  % visual injury, observed (Ob): 85%
Cleavers (GALAP); compound 2 70 + CQC-m 0 g/ha
  % visual injury, observed (Ob): 97%
Prickly lettuce (LACSE); [1]
  % visual injury, observed (Ob): 40%
Prickly lettuce (LACSE); compound 2 8.75 + CQC-m 0 g/ha
  % visual injury, observed (Ob): 99%
Prickly lettuce (LACSE); compound 2 17.5 + CQC-m 0 g/ha
  % visual injury, observed (Ob): 99%
Prickly lettuce (LACSE); compound 2 35 + CQC-m 0 g/ha
  % visual injury, observed (Ob): 100%
Prickly lettuce (LACSE); compound 2 70 + CQC-m 0 g/ha
  % visual injury, observed (Ob): 100%
Wild buckwheat (POLCO)
  % visual injury, Ob: 100%
Russian thistle (SASKR); [1]
  % visual injury, observed (Ob): 75%
Russian thistle (SASKR); compound 2 8.75 + CQC-m 0 g/ha
  % visual injury, observed (Ob): 85%
Russian thistle (SASKR); compound 2 17.5 + CQC-m 0 g/ha
  % visual injury, observed (Ob): 89%
Russian thistle (SASKR); compound 2 35 + CQC-m 0 g/ha
  % visual injury, observed (Ob): 92%
Russian thistle (SASKR); compound 2 70 + CQC-m 0 g/ha
  % visual injury, observed (Ob): 92%
Chickweed (STEME); [1]
  % visual injury, observed (Ob): 25%
Chickweed (STEME); compound 2 8.75 + CQC-m 0 g/ha
  % visual injury, observed (Ob): 68%
Chickweed (STEME); compound 2 17.5 + CQC-m 0 g/ha
  % visual injury, observed (Ob): 97%
Chickweed (STEME); compound 2 35 + CQC-m 0 g/ha
  % visual injury, observed (Ob): 100%
Chickweed (STEME); compound 2 70 + CQC-m 0 g/ha
  % visual injury, observed (Ob): 100%
shepherd's purse (CAPBP); [1]
  % visual injury, observed (Ob): 20%
shepherd's purse (CAPBP); compound 2 8.75 + CQC-m 0 g/ha
  % visual injury, observed (Ob): 30%
shepherd's purse (CAPBP); compound 2 17.5 + CQC-m 0 g/ha
  % visual injury, observed (Ob): 100%
shepherd's purse (CAPBP); compound 2 35 + CQC-m 0 g/ha
  % visual injury, observed (Ob): 100%
shepherd's purse (CAPBP); compound 2 70 + CQC-m 0 g/ha
  % visual injury, observed (Ob): 100%
Cornflower (CENCY); [1]
  % visual injury, observed (Ob): 100%
Cornflower (CENCY); compound 2 8.75 + CQC-m 0 g/ha
  % visual injury, observed (Ob): 100%
Cornflower (CENCY); compound 2 17.5 + CQC-m 0 g/ha
  % visual injury, observed (Ob): 100%
Cornflower (CENCY); compound 2 35 + CQC-m 0 g/ha
  % visual injury, observed (Ob): 100%
Cornflower (CENCY); compound 2 70 + CQC-m 0 g/ha
  % visual injury, observed (Ob): 100%
